For data set [1] the following is noted: PAMPA, pH 7.4.
Data set [2] in a line: Stability test in human plasma. The format is in vitro ADME. As to conditions: 100 μL of around 1 mM peptide in H2O with 1 μL reconstituted human plasma (Sigma-Aldrich), 37 °C, 48 h, HPLC. The procedure: (§1) GSH solution (to 1 mM) or 1 μL of reconstituted human plasma (Sigma -Aldrich), and the resulting
mixture vortexed for 30 s and then shaken at 37 °C. […]
DAD1 E, Sig=280,4 Ref =360,100 (SHUANG\ISOBUT YLENE STAPLED SOMATOST AT IN_PLASMA.D)

Data set [3] can be described thus: Stability test in presence of GSH. The format is physicochemical. As to conditions: around 1 mM peptide in H2O, 1 mM GSH, 37 °C, 48 h, HPLC. How it is done:
as §1
mixture vortexed for 30 s and then shaken at 37 °C. After 48 h, an aliquot of each reaction mixture was […]

From article PMC5813187, “Enhanced Permeability and Binding Activity of Isobutylene‐Grafted Peptides” (Chembiochem, 2017) come the findings set out here.

Where a SMILES comes first, the peptide text is derived from it. A value given as a limit tells only on which side of the number the result lay.

Consider `CC(=O)N[C@@H](CS)C(=O)N1CCC[C@H]1C(=O)N[C@@H](CC(=O)O)C(=O)N[C@@H](Cc1ccccc1)C(=O)N[C@@H](CC(C)C)C(=O)N[C@@H](C)C(=O)N[C@@H](CS)C(N)=O` [III] (Ac-CPDFLAC-NH2), for which the Permeability in data set [1] is less than 0.01 nm/s.

Regarding `CC(=O)N[C@@H](CS)C(=O)N1CCC[C@H]1C(=O)N[C@@H](CC(C)C)C(=O)N[C@@H](CC(=O)O)C(=O)N[C@@H](Cc1ccccc1)C(=O)N[C@@H](C)C(=O)N[C@@H](CS)C(N)=O` [II] (Ac-CPLDFAC-NH2), in data set [1], the Permeability was 7.6 nm/s and the “−log P e” value amounted to 5.12.

`C=C1CSC[C@@H](C(=O)O)NC(=O)[C@H](CO)NC(=O)[C@H]([C@@H](C)O)NC(=O)[C@H](Cc2ccccc2)NC(=O)[C@H]([C@@H](C)O)NC(=O)[C@H](CCCCN)NC(=O)[C@H](Cc2c[nH]c3ccccc23)NC(=O)[C@H](Cc2ccccc2)NC(=O)[C@H](Cc2ccccc2)NC(=O)[C@H](CC(N)=O)NC(=O)[C@H](CCCCN)NC(=O)[C@@H](NC(=O)CNC(=O)[C@H](C)N)CSC1` [stapled somatostatin]: the “stability in human plasma” value in data set [2] is listed as “fully stable”; in data set [2] (listed as Stapled Somatostatin), “No significant degradation”. For the same molecule, the “stability in the presence of glutathione” value in data set [3] is listed as “fully stable”; in data set [3] (listed as Stapled Somatostatin), “No significant degradation”.
